Measured values published in ChEMBL document CHEMBL1121909, “Alkylating angiotensin II analogues: synthesis, analysis, and biological activity of angiotensin II analogues containing the nitrogen mustard melphalan in position 8” (J Med Chem, 1981).
Where a SMILES comes first, the peptide text is derived from it. [ ]: non-standard residue; d: D form. Phe(4-N(CH2CH2Cl)2) = N[C@@H](Cc1ccc(N(CCCl)CCCl)cc1)C(=O)O

What was measured:
Rattus norvegicus [1] = test: The compound was tested in vivo for pressor activity in Rat uterine preparation; assay type: functional
Rattus norvegicus [2] = organism: Rattus norvegicus; test: Antagonism against angiotensin II induced contraction in Rat uterine preparation; assay type: functional; conditions: read-out: pA2 (converted)

Compound | Activity (Rattus norvegicus [1]) | Kb (Rattus norvegicus [2])
CC[C@H](C)[C@@H](NC(=O)[C@H](Cc1ccc(O)cc1)NC(=O)[C@@H](NC(=O)[C@H](CCCNC(N)N)NC(=O)[C@@H](N)CC(=O)O)C(C)C)[C@@H](C)N[C@@H](Cc1c[nH]cn1)C(=O)N1CCC[C@@H]1C(=O)N[C@@H](Cc1ccc(N(CCCl)CCCl)cc1)C(=O)O | 0.3% | 
CC[C@H](C)[C@H](NC(=O)[C@H](Cc1ccc(O)cc1)NC(=O)[C@@H](NC(=O)[C@H](CCCN=C(N)N)NC(=O)[C@H](CC(N)=O)NC(C)=O)C(C)C)C(=O)N[C@@H](Cc1c[nH]cn1)C(=O)N1CCC[C@H]1C(=O)N[C@@H](Cc1ccc(N(CCCl)CCCl)cc1)C(=O)O (Ac-NRVYIHP[Phe(4-N(CH2CH2Cl)2)]-OH) |  | 3.16 nM
